Measured values reported in ChEMBL document CHEMBL4304757, “Synthetic heterocyclic candidates as promising α-glucosidase inhibitors: An overview” (Eur J Med Chem, 2019).
One block for each compound: values may come before it.

Columns and labels:
[1] = Inhibition of yeast alpha-glucosidase using p-nitrophenyl-alpha-d-glucopyranoside as substrate preincubated with enzyme followed by substrate addition measured after 30 mins by spectrophotometric analysis; design: species or system Saccharomyces cerevisiae
[2] = Inhibition of rat intestinal maltase-glucoamylase using p-nitrophenyl alpha-D-glucoside as substrate preincubated for 5 mins followed by substrate addition and measured after 30 mins
[3] = target: T1, Alpha glucosidase (Homo sapiens, UniProt O43451+P10253+P14410+Q2M2H8); assay: Inhibition of alpha-glucosidase (unknown origin) using p-nitro phenyl glucopyranoside as substrate preincubated for 5 mins followed by substrate addition measured after 30 mins; type: protein assay
[4] = target: T1, Alpha glucosidase; assay: Competitive inhibition of alpha-glucosidase (unknown origin) using p-nitrophenyl-alpha-d-glucopyranoside as substrate preincubated for 10 mins followed by substrate addition measured after 20 mins; type: protein assay
[5] = target: T1, Alpha glucosidase; assay: Inhibition of alpha-glucosidase (unknown origin) using p-nitrophenyl-alpha-d-glucopyranoside as substrate preincubated for 10 mins followed by substrate addition measured after 20 mins; type: protein assay
[6] = target: T1, Alpha glucosidase; assay: Inhibition of alpha-glucosidase (unknown origin) using p-nitro phenyl glucopyranoside as substrate preincubated for 10 mins followed by substrate addition measured after 10 mins; type: protein assay
[7] = target: T2, Alpha amylase (Homo sapiens, UniProt P0DUB6); assay: Inhibition of alpha-amylase (unknown origin) using p-nitro phenyl glucopyranoside as substrate preincubated for 10 mins followed by substrate addition measured after 10 mins
T2 sequence (P0DUB6 whole entry): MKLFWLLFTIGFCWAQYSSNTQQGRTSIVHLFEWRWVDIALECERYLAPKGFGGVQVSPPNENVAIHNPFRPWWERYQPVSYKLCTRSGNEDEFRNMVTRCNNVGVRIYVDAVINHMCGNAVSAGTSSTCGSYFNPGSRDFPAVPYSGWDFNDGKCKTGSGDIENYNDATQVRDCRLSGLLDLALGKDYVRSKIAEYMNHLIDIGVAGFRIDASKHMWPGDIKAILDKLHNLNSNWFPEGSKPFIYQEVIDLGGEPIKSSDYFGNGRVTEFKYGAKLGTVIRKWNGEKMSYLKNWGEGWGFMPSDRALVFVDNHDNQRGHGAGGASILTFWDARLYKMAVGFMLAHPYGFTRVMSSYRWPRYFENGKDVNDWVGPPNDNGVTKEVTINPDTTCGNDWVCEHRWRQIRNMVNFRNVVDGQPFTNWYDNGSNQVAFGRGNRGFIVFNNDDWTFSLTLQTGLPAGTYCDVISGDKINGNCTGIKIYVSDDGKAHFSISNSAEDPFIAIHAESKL

[8] = target: T1, Alpha glucosidase; assay: Inhibition of alpha-glucosidase (unknown origin) using p-nitrophenyl-alpha-d-glucopyranoside as substrate preincubated for 30 mins followed by substrate addition measured after 60 mins; type: protein assay
[9] = target: T1, Alpha glucosidase; assay: Inhibition of alpha-glucosidase (unknown origin) using p-nitrophenyl-alpha-d-glucopyranoside as substrate preincubated for 5 mins followed by substrate addition measured after 30 mins; type: protein assay
[10] = target: T1, Alpha glucosidase; assay: Potency index, ratio of acarbose IC50 to compound IC50 for inhibition of alpha-glucosidase (unknown origin) using p-nitrophenyl-alpha-d-glucopyranoside as substrate preincubated for 5 mins followed by substrate addition measured after 30 mins; type: protein assay
[11] = Inhibition of urease (unknown origin) assessed as reduction in ammonia production using urea as substrate after 15 mins by indophenol method
[12] = target: T1, Alpha glucosidase; assay: Inhibition of alpha-glucosidase (unknown origin) using p-nitrophenyl-alpha-d-glucopyranoside as substrate preincubated for 30 mins followed by substrate addition measured for 60 secs by spectrophotometric analysis; type: protein assay
[13] = target: T1, Alpha glucosidase; assay: Non-competitive inhibition of alpha-glucosidase (unknown origin) using p-nitro phenyl glucopyranoside as substrate preincubated for 10 mins followed by substrate addition measured after 30 mins; type: protein assay
[14] = target: T1, Alpha glucosidase; assay: Inhibition of alpha-glucosidase (unknown origin) using p-nitro phenyl glucopyranoside as substrate preincubated for 10 mins followed by substrate addition measured after 30 mins; type: protein assay
[15] = Inhibition of yeast alpha-glucosidase; design: species or system Saccharomyces cerevisiae
[16] = Inhibition of mouse alpha-glucosidase
[17] = target: T1, Alpha glucosidase; assay: Inhibition of alpha-glucosidase (unknown origin) using pNPG as substrate preincubated for 15 mins followed by substrate addition; type: protein assay

IC50 [1]: 10 µM
Compound: O=C(CCCSc1nc2ccccc2s1)Nc1cccc2ccccc12

IC50 [2]: 0.04 µM
IC50 [3]: 0.07 µM
Compound: O=c1oc2ccccc2cc1-c1nn(C(Nc2ccc(Oc3ccc(NC(c4cccc(Br)c4)n4nc(-c5cc6ccccc6oc5=O)oc4=S)cc3)cc2)c2cccc(Br)c2)c(=S)o1 (centres undefined)

Ki [4]: 22 µM
IC50 [5]: 20 µM
Compound: Cc1ccc(C(c2c(N)c3ccccc3oc2=O)c2c(N)c3ccccc3oc2=O)cc1

IC50 [6]: 0.55 µM
IC50 [7]: 0.85 µM
Compound: CCOC(=O)CN1C(=O)S/C(=C/c2ccc(-n3ccc4c(Br)ccnc43)cc2)C1=O

IC50 [8]: 9.6 µM
Compound: Clc1ccc(/N=c2\scc(-c3ccc(Cl)cc3)n2Nc2ccccc2)cc1

IC50 [9]: 0.15 µM
Ratio IC50 [10]: 255
Compound: Cc1ccccc1C(=O)/N=c1\scc(C)n1-c1cc(Cl)c(Cl)cc1Cl

IC50 [11]: 8.3 µM
Compound: Oc1ccc(-c2nc3ccc(Br)cc3[nH]2)cc1

IC50 [9]: 0.15 µM
Ratio IC50 [10]: 255
Compound: Cc1cs/c(=N\C(=O)c2cccc3ccccc23)n1-c1cc(Cl)c(Cl)cc1Cl

IC50 [12]: 22 µM
Compound: Oc1ccc(Br)cc1-c1nc2cc(Cl)ccc2s1

IC50 [12]: 6.2 µM
Compound: C(=N\Nc1nc(-c2ccc(-c3ccccc3)cc2)cs1)/c1cccc2ccccc12

Ki [13]: 6.8 µM
IC50 [14]: 6.2 µM
Compound: O=C(N/N=C/c1cc(Cl)cc(Cl)c1O)c1nc(-c2cc3ccccc3oc2=O)cs1

IC50 [15]: 97 to 119 µM
IC50 [16]: 98 to 413 µM
Compound: COc1ccc(/C=C/C(=O)C2=C(/C=C/c3ccc(OC)c(O)c3)Oc3[nH]c(=O)[nH]c(=O)c3C2c2ccc(Cl)cc2)cc1O (centres undefined)

IC50 [17]: 5.3 µM
Compound: Cc1cccc2nc(-c3ccccc3Cl)[nH]c12

IC50 [15]: 97 to 119 µM
IC50 [16]: 98 to 413 µM
Compound: COc1ccc(/C=C/C(=O)C2=C(/C=C/c3ccc(OC)c(O)c3)Oc3[nH]c(=O)[nH]c(=O)c3C2c2cc3ccccc3[nH]2)cc1O (centres undefined)

IC50 [15]: 97 to 119 µM
IC50 [16]: 98 to 413 µM
Compound: COc1ccc(/C=C/C(=O)C2=C(/C=C/c3ccc(OC)c(O)c3)Oc3[nH]c(=O)[nH]c(=O)c3C2c2ccccc2)cc1O (centres undefined)
